Assay results published in ChEMBL document CHEMBL1201862, “PubChem BioAssay data set” (2004).
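Method: 48-hour compound exposure of cells in 96-well plates, five concentrations, linear interpolation of endpoints. Abbreviation: GI50, concentration required for 50% inhibition of growth.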 Activity calls are given as the source filed them. No stated cut-off is given here; in the data, active = GI50 up to about 1.1 µM and inactive = higher.

Tests used:
Experiment in all cases: DTP human tumour cell line panel, 48 h
[1] = system: 786-0
[2] = system: A498
[3] = system: A549
[4] = system: ACHN
[5] = system: BT-549
[6] = system: CAKI-1
[7] = system: CCRF-CEM
[8] = system: COLO 205
[9] = system: DU-145
[10] = system: EKVX
[11] = system: HCC 2998
[12] = system: HCT-116
[13] = system: HCT-15
[14] = system: HL-60
[15] = system: HOP-62
[16] = system: HOP-92
[17] = system: HT-29
[18] = system: Hs-578T
[19] = system: IGROV-1
[20] = system: K562
[21] = system: KM12
[22] = system: LOX IMVI
[23] = system: M14
[24] = system: MCF7
[25] = system: MDA-MB-231
[26] = system: MDA-MB-435
[27] = system: MDA-N
[28] = system: MOLT-4
[29] = system: Malme-3M
[30] = system: NCI-H226
[31] = system: NCI-H23
[32] = system: NCI-H460
[33] = system: NCI-H522
[34] = system: NCI/ADR-RES
[35] = system: OVCAR-3
[36] = system: OVCAR-4
[37] = system: OVCAR-5
[38] = system: OVCAR-8
[39] = system: PC-3
[40] = system: RPMI-8226
[41] = system: RXF 393
[42] = system: SF-268
[43] = system: SF-295
[44] = system: SF-539
[45] = system: SK-MEL-28
[46] = system: SK-MEL-2
[47] = system: SK-MEL-5
[48] = system: SK-OV-3
[49] = system: SN12C
[50] = system: SNB-19
[51] = system: SNB-75
[52] = system: SR
[53] = system: SW-620
[54] = system: T47D
[55] = system: TK-10
[56] = system: U-251
[57] = system: UACC-257
[58] = system: UACC-62
[59] = system: UO-31

COc1cc(CC(C)C(C)Cc2ccc(O)c(OC)c2)ccc1O (configuration not stated) [DIHYDROGUAIARETIC ACID]
GI50 [1]: 19.9 µM (inactive) | GI50 [2]: 18.5 µM (inactive) | GI50 [3]: 14.5 µM (inactive) | GI50 [4]: 13.1 µM (inactive) | GI50 [5]: 15.1 µM (inactive) | GI50 [6]: 16.9 µM (inactive) | GI50 [7]: 13.3 µM (inactive) | GI50 [8]: > 50 µM (inactive) | GI50 [9]: 22.3 µM (inactive) | GI50 [10]: 15.5 µM (inactive) | GI50 [11]: 18.5 µM (inactive) | GI50 [12]: 17.4 µM (inactive) | GI50 [13]: 20 µM | GI50 [14]: 9.4 µM (inactive) | GI50 [15]: 23.9 µM (inactive) | GI50 [16]: 11.7 µM (inactive) | GI50 [17]: 22.5 µM (inactive) | GI50 [18]: 8.15 µM (inactive) | GI50 [19]: 12.7 µM (inactive) | GI50 [20]: 15 µM (inactive) | GI50 [21]: 14.7 µM (inactive) | GI50 [22]: 11.5 µM (inactive) | GI50 [23]: 14.1 µM (inactive) | GI50 [24]: 17.9 µM (inactive) | GI50 [25]: 10.1 µM (inactive) | GI50 [26]: 13 µM (inactive) | GI50 [27]: 17.3 µM (inactive) | GI50 [28]: 9.29 µM (inactive) | GI50 [29]: 13.1 µM (inactive) | GI50 [30]: 14.2 µM (inactive) | GI50 [31]: 16.9 µM (inactive) | GI50 [32]: 14.5 µM (inactive) | GI50 [33]: 9.86 µM (inactive) | GI50 [34]: 16.2 µM (inactive) | GI50 [35]: 16 µM (inactive) | GI50 [36]: 20.1 µM (inactive) | GI50 [37]: > 50 µM (inactive) | GI50 [38]: 15.6 µM (inactive) | GI50 [39]: 10.8 µM (inactive) | GI50 [40]: 7.93 µM (inactive) | GI50 [41]: 13.1 µM (inactive) | GI50 [42]: 15.7 µM (inactive) | GI50 [43]: 17.2 µM (inactive) | GI50 [44]: 31.8 µM (inactive) | GI50 [45]: 21 µM (inactive) | GI50 [46]: 9.68 µM (inactive) | GI50 [47]: 8.55 µM (inactive) | GI50 [48]: 20.9 µM (inactive) | GI50 [49]: 15.4 µM (inactive) | GI50 [50]: 21.8 µM (inactive) | GI50 [51]: 14.2 µM (inactive) | GI50 [52]: 9.2 µM (inactive) | GI50 [53]: 18.2 µM (inactive) | GI50 [54]: 16.3 µM (inactive) | GI50 [55]: 34 µM (inactive) | GI50 [56]: 14.8 µM (inactive) | GI50 [57]: 15.8 µM (inactive) | GI50 [58]: 16.7 µM (inactive) | GI50 [59]: 12.7 µM (inactive)

C[C@]12CCC(=O)[C@@H](CCC3=CC(=O)C=CC3=O)[C@@H]1CCC2=O
GI50 [1]: 10 µM (inactive) | GI50 [2]: 17.5 µM (inactive) | GI50 [3]: 18.8 µM (inactive) | GI50 [4]: 16.6 µM (inactive) | GI50 [5]: 11 µM (inactive) | GI50 [6]: 12.7 µM (inactive) | GI50 [7]: 1.87 µM (inactive) | GI50 [8]: 13 µM (inactive) | GI50 [9]: 17.9 µM (inactive) | GI50 [10]: 18.4 µM (inactive) | GI50 [11]: 15.3 µM (inactive) | GI50 [12]: 15.5 µM (inactive) | GI50 [13]: 17.4 µM | GI50 [14]: 2.7 µM (inactive) | GI50 [15]: 39.2 µM (inactive) | GI50 [16]: 14.2 µM (inactive) | GI50 [17]: 25.6 µM (inactive) | GI50 [18]: 3.97 µM (inactive) | GI50 [20]: 2.14 µM (inactive) | GI50 [21]: 14.3 µM (inactive) | GI50 [22]: 11 µM (inactive) | GI50 [23]: 17.8 µM (inactive) | GI50 [24]: 13.9 µM (inactive) | GI50 [25]: 20.3 µM (inactive) | GI50 [26]: 22 µM (inactive) | GI50 [27]: 23.8 µM (inactive) | GI50 [28]: 5.21 µM (inactive) | GI50 [29]: 16.1 µM (inactive) | GI50 [30]: 20.7 µM (inactive) | GI50 [31]: 12.5 µM (inactive) | GI50 [32]: 13.2 µM (inactive) | GI50 [33]: 2.19 µM (inactive) | GI50 [34]: 38 µM (inactive) | GI50 [35]: 17.1 µM (inactive) | GI50 [36]: 17.2 µM (inactive) | GI50 [37]: 41.5 µM (inactive) | GI50 [38]: 16.1 µM (inactive) | GI50 [39]: 12.9 µM (inactive) | GI50 [40]: 1.6 µM (inactive) | GI50 [41]: 1.9 µM (inactive) | GI50 [42]: 14.3 µM (inactive) | GI50 [43]: 17.8 µM (inactive) | GI50 [44]: 11.4 µM (inactive) | GI50 [45]: 13.2 µM (inactive) | GI50 [46]: 11.7 µM (inactive) | GI50 [47]: 6.32 µM (inactive) | GI50 [48]: 26.1 µM (inactive) | GI50 [49]: 37.4 µM (inactive) | GI50 [50]: 41.5 µM (inactive) | GI50 [51]: 5.48 µM (inactive) | GI50 [52]: 0.0102 µM (active) | GI50 [53]: 18.2 µM (inactive) | GI50 [54]: 9.23 µM (inactive) | GI50 [55]: 16 µM (inactive) | GI50 [56]: 20.7 µM (inactive) | GI50 [57]: 17.8 µM (inactive) | GI50 [58]: 16.6 µM (inactive) | GI50 [59]: 14.3 µM (inactive)
